The first test has as its system HCV 1b-377-neo replicon cells. The test can be described thus: HCV replicon assay, HCV 1b-377-neo replicon cells (1b FRET). Format: cell-based, Hepatitis C virus genotype 1b. The settings on record: HCV 1b-377-neo replicon cells; HCV 1b genotype; read-out: EC50 range against HCV 1b (Table 2, Range). In short, it runs like this: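 FRET-based replicon assay in HCV 1b-377-neo cells, including a comparison line carrying the NS5A Y2065H mutation that confers resistance to a reference compound.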
Turning to `COC(=O)N[C@@H](C(=O)N1CCC[C@H]1c1ncc(-c2ccc(-c3ccc(-c4cnc([C@@H]5CCCN5C(=O)[C@H]5CCC(=O)N5)[nH]4)cc3)cc2)[nH]1)c1ccccc1` [Example 84-3], the 50% effective concentration (EC50) lay within 0.001 to 0.999 nM.

The test is the same for the next values; noted with them: Hepatitis C virus, HCV 1b-377-neo replicon cells; HCV 1b genotype; read-out: EC50 range against HCV 1b (Table 2, Range).
Take `COC(=O)N[C@@H](C(=O)N1CCC[C@H]1c1ncc(-c2ccc(-c3ccc(-c4cnc([C@@H]5CCCN5C(=O)[C@@H](c5ccccc5)N5CCCCC5)[nH]4)cc3)cc2)[nH]1)c1ccccc1` [Example 84-1, methyl ((1R)-2-oxo-1-phenyl-2-((2S)-2-(5-(4′-(2-((2S)-1-((2R)-2-phenyl-2-(1-piperidinyl)acetyl)-2-pyrrolidinyl)-1H-imidazol-5-yl)-4-biphenylyl)-1H-imidazol-2-yl)-1-pyrrolidinyl)ethyl)carbamate]: the concentration giving a half-maximal response (EC50) fell in the range of 0.001 to 0.999 nM. The same measure, in the same setting: in the case of `COC(=O)N[C@@H](C(=O)N1CCC[C@H]1c1ncc(-c2ccc(-c3ccc(-c4cnc([C@@H]5CCCN5C(=O)[C@@](C)(O)c5ccccc5F)[nH]4)cc3)cc2)[nH]1)c1ccccc1` [Example 84-2, methyl ((1R)-2-((2S)-2-(5-(4′-(2-((2S)-1-((2S)-2-(2-fluorophenyl)-2-hydroxypropanoyl)-2-pyrrolidinyl)-1H-imidazol-5-yl)-4-biphenylyl)-1H-imidazol-2-yl)-1-pyrrolidinyl)-2-oxo-1-phenylethyl)carbamate] it was 0.001 to 0.999 nM.

Consider `COC(=O)N[C@@H](C(=O)N1CCC[C@H]1c1ncc(-c2ccc(-c3ccc(-c4cnc([C@@H]5CCCN5C(=O)[C@@H](c5ccccc5)N5CCC(C)(O)CC5)[nH]4)cc3)cc2)[nH]1)c1ccccc1` [Example 84-4, methyl ((1R)-2-((2S)-2-(5-(4′-(2-((2S)-1-((2R)-2-(4-hydroxy-4-methyl-1-piperidinyl)-2-phenylacetyl)-2-pyrrolidinyl)-1H-imidazol-5-yl)-4-biphenylyl)-1H-imidazol-2-yl)-1-pyrrolidinyl)-2-oxo-1-phenylethyl)carbamate], for which the EC50 lay in the range of 0.001 to 0.999 nM. As for `COC(=O)N[C@@H](C(=O)N1CCC[C@H]1c1ncc(-c2ccc(-c3ccc(-c4cnc([C@@H]5CCCN5C(=O)CNC(=O)c5ccccc5)[nH]4)cc3)cc2)[nH]1)c1ccccc1` [Example 84-7, methyl ((1R)-2-((2S)-2-(5-(4′-(2-((2S)-1-(N-benzoylglycyl)-2-pyrrolidinyl)-1H-imidazol-5-yl)-4-biphenylyl)-1H-imidazol-2-yl)-1-pyrrolidinyl)-2-oxo-1-phenylethyl)carbamate], the concentration for a half-maximal effect (EC50) is 1 to 99 nM. In the case of `COC(=O)N[C@@H](C(=O)N1CCC[C@H]1c1ncc(-c2ccc(-c3ccc(-c4cnc([C@@H]5CCCN5C(=O)c5snnc5-c5ccccc5)[nH]4)cc3)cc2)[nH]1)c1ccccc1` [Example 84-10, methyl ((1R)-2-oxo-1-phenyl-2-((2S)-2-(5-(4′-(2-((2S)-1-((4-phenyl-1,2,3-thiadiazol-5-yl)carbonyl)-2-pyrrolidinyl)-1H-imidazol-5-yl)-4-biphenylyl)-1H-imidazol-2-yl)-1-pyrrolidinyl)ethyl)carbamate], the EC50 is 1 to 99 nM. Consider `COC(=O)N[C@@H](C(=O)N1CCC[C@H]1c1ncc(-c2ccc(-c3ccc(-c4cnc([C@@H]5CCCN5C(=O)C5(C)CCN(C(=O)OC(C)(C)C)CC5)[nH]4)cc3)cc2)[nH]1)c1ccccc1` [Example 84-12, tert-butyl 4-(((2S)-2-(5-(4′-(2-((2S)-1-((2R)-2-((methoxycarbonyl)amino)-2-phenylacetyl)-2-pyrrolidinyl)-1H-imidazol-5-yl)-4-biphenylyl)-1H-imidazol-2-yl)-1-pyrrolidinyl)carbonyl)-4-methyl-1-piperidinecarboxylate], for which the concentration giving a half-maximal response (EC50) lay in the range of 0.001 to 0.999 nM. The same measure, in the same setting: in the case of `COC(=O)N[C@@H](C(=O)N1CCC[C@H]1c1ncc(-c2ccc(-c3ccc(-c4cnc([C@@H]5CCCN5C(=O)Cc5cccc(O)c5)[nH]4)cc3)cc2)[nH]1)c1ccccc1` [Example 84-14, methyl ((1R)-2-((2S)-2-(5-(4′-(2-((2S)-1-((3-hydroxyphenyl)acetyl)-2-pyrrolidinyl)-1H-imidazol-5-yl)-4-biphenylyl)-1H-imidazol-2-yl)-1-pyrrolidinyl)-2-oxo-1-phenylethyl)carbamate] it was 1 to 99 nM; in that of `COC(=O)N[C@@H](C(=O)N1CCC[C@H]1c1ncc(-c2ccc(-c3ccc(-c4cnc([C@@H]5CCCN5C(=O)CCN(C)C)[nH]4)cc3)cc2)[nH]1)c1ccccc1` [Example 84-15, methyl ((1R)-2-((2S)-2-(5-(4′-(2-((2S)-1-(N,N-dimethyl-beta-alanyl)-2-pyrrolidinyl)-1H-imidazol-5-yl)-4-biphenylyl)-1H-imidazol-2-yl)-1-pyrrolidinyl)-2-oxo-1-phenylethyl)carbamate], 1 to 99 nM; in that of `COC(=O)N[C@@H](C(=O)N1CCC[C@H]1c1ncc(-c2ccc(-c3ccc(-c4cnc([C@@H]5CCCN5C(=O)[C@@H]5CCN(Cc6ccccc6)C5)[nH]4)cc3)cc2)[nH]1)c1ccccc1` [Example 84-17, methyl ((1R)-2-((2S)-2-(5-(4′-(2-((2S)-1-(((3R)-1-benzyl-3-pyrrolidinyl)carbonyl)-2-pyrrolidinyl)-1H-imidazol-5-yl)-4-biphenylyl)-1H-imidazol-2-yl)-1-pyrrolidinyl)-2-oxo-1-phenylethyl)carbamate], 0.001 to 0.999 nM. For `COC(=O)N[C@@H](C(=O)N1CCC[C@H]1c1ncc(-c2ccc(-c3ccc(-c4cnc([C@@H]5CCCN5C(=O)C[C@@H]5CCCN5C(=O)OC(C)(C)C)[nH]4)cc3)cc2)[nH]1)c1ccccc1` [Example 84-18, tert-butyl (2S)-2-(2-((2S)-2-(5-(4′-(2-((2S)-1-((2R)-2-((methoxycarbonyl)amino)-2-phenylacetyl)-2-pyrrolidinyl)-1H-imidazol-5-yl)-4-biphenylyl)-1H-imidazol-2-yl)-1-pyrrolidinyl)-2-oxoethyl)-1-pyrrolidinecarboxylate], the concentration giving a half-maximal response (EC50) was in the range of 1 to 99 nM. As to `COC(=O)N[C@@H](C(=O)N1CCC[C@H]1c1ncc(-c2ccc(-c3ccc(-c4cnc([C@@H]5CCCN5C(=O)Cc5cc(C)[nH]n5)[nH]4)cc3)cc2)[nH]1)c1ccccc1` [Example 84-19, methyl ((1R)-2-((2S)-2-(5-(4′-(2-((2S)-1-((5-methyl-1H-pyrazol-3-yl)acetyl)-2-pyrrolidinyl)-1H-imidazol-5-yl)-4-biphenylyl)-1H-imidazol-2-yl)-1-pyrrolidinyl)-2-oxo-1-phenylethyl)carbamate], the EC50 is 1 to 99 nM. On the same count and under the same terms, in the case of `COC(=O)N[C@@H](C(=O)N1CCC[C@H]1c1ncc(-c2ccc(-c3ccc(-c4cnc([C@@H]5CCCN5C(=O)[C@@H]5Cc6ccc(O)cc6CN5)[nH]4)cc3)cc2)[nH]1)c1ccccc1` [Example 84-20, methyl ((1R)-2-((2S)-2-(5-(4′-(2-((2S)-1-(((3S)-7-hydroxy-1,2,3,4-tetrahydro-3-isoquinolinyl)carbonyl)-2-pyrrolidinyl)-1H-imidazol-5-yl)-4-biphenylyl)-1H-imidazol-2-yl)-1-pyrrolidinyl)-2-oxo-1-phenylethyl)carbamate] it was 1 to 99 nM; in that of `COC(=O)N[C@@H](C(=O)N1CCC[C@H]1c1ncc(-c2ccc(-c3ccc(-c4cnc([C@@H]5CCCN5C(=O)CCN5CCCCC5)[nH]4)cc3)cc2)[nH]1)c1ccccc1` [Example 84-24, methyl ((1R)-2-oxo-1-phenyl-2-((2S)-2-(5-(4′-(2-((2S)-1-(3-(1-piperidinyl)propanoyl)-2-pyrrolidinyl)-1H-imidazol-5-yl)-4-biphenylyl)-1H-imidazol-2-yl)-1-pyrrolidinyl)ethyl)carbamate], 0.001 to 0.999 nM.

The values above are taken from patent US8574563B2 (Bristol-Myers Squibb Company, priority 2006, dated 2013).
